Assay results: patent publication US20140323511A1, “CHEMOTHERAPEUTIC FOR INDUCING AN MSH2 DEPENDENT APOPTOTIC PATHWAY” (Wake Forest University Health Sciences, priority 2013, published 2014)

Assays:
[1] = system: HEC59 cells (msh2 deficient); assay: Cell viability assay (CellTiter 96 Aqueous One Solution), MSH2-deficient endometrial cells; assay type: cell-based; settings: Homo sapiens; HEC59, drug 24 hours; graphs not reaching 50% mortality were extrapolated; NA = data did not reach below 50%, no extrapolation possible; read-out: 50IC MSH2 deficient
Protocol: (§1) HEC59 cells (msh2 deficient) and the paired cell line HEC59 chr. that restores the MSH2-deficiency via chromosome transfer have been extensively characterized (Umar et al., 1997). Cells were grown in standard growth media (DMEM-F12+10% FBS). Cells were plated in microtiter plates at an appropriate concentration in 100 μl media and incubated overnight. Media was replaced with media containing drug and allowed to incubate for 24 hours at indicated concentrations. Untreated cells received fresh media with vehicle only. One solution reagent (CellTiter 96)(r) Aqueous One Solution) was added to existing media (20 μl/well) and allowed to incubate 3-4 hrs. A plate reader was used to record the absorbance at 490 nm. Assays were performed at least in triplicates. Cell viability at each concentration was analyzed for IC50 values using GraphPad Prism 4™. Graphs represent mean values and standard deviations.
(§2) We next tested these new rescinnamine analogs in a well-defined cellular system with an endometrial cell line deficient (HEC59) and proficient (via chromosome transfer, HEC59+chr.2) for MSH2. […] No significant difference was detected when determining the IC50 values.

[2] = system: HEC59 and HEC59+chr.2; assay: Cell viability compared between the paired MSH2-deficient and MSH2-proficient endometrial cell lines; assay type: cell-based, human; settings: for cell killing: endometrial cell line deficient (HEC59) and proficient (HEC59+chr.2) for MSH2, data not shown; for change of IC50 when MSH2 is present: HEC59+chr.2 vs HEC59; for change in sensitivity to MSH2: comparison of isomers, MSH2 proficient vs deficient IC50; for difference between MSH2-proficiency and deficiency (MSH2-dependence of cell killing): HEC59 vs HEC59+chr.2
Protocol: as §1, §2

[3] = system: HEC59+chr.2 (MSH2 proficient via chromosome transfer); assay: Cell viability assay (CellTiter 96 Aqueous One Solution), MSH2-proficient endometrial cells; assay type: cell-based; settings: Homo sapiens; HEC59+chr.2, drug 24 hours; graphs not reaching 50% mortality were extrapolated; NA = data did not reach below 50%, no extrapolation possible; read-out: 50IC MSH2 proficient
Protocol: as §1, §2

[4] = system: ovarian cancer cells; assay: Overcoming resistance to cisplatin in ovarian cancer cells; assay type: cell-based; settings: data not shown
[5] = system: SW416 or HEC59 cells; assay: Xenograft model; assay type: in vivo, mice
Protocol: SW416 or HEC59 cells in PBS mixed with Matrigel (1:1; BD Biosciences) were subcutaneously injected into the flank of nude donor mice. Tumors were grown for up to 3 weeks. Mice were euthanized, tumors excised, minced into 3 mm pieces, and surgically implanted into the right flank of acceptor mice (10 per group). Isoflurane anesthesia was provided during tumor inoculation. Injection of compounds was started 3 days following tumor implantation to allow recovery from surgery. Compounds were given intraperitoneally, in a volume of 0.5 ml/mouse with a ¼ inch, 23-gauge needle in a 6 ml plastic syringe. Mice were monitored based on survival and body weight. Tumor size, measured by caliper, and body weight were monitored […] for 57 days, and the prolongation of median survival time after ip treatment determined. Any animals showing signs of distress, unnatural movements, severe loss of appetite, severe signs of hypotension, tumor size of […], or weight loss exceeding 10% before the end of the study were euthanized. Tumors were measured twice a week for each group. Tumor volume is calculated as length(mm)×width (mm)^2. Initial measurements were performed when the tumor reached 150-200 mg. Tumor weight (in mg) is calculated as tumor weight (mg)[…](length(mm) of tumor×width (mm) of tumor^2)/2.

[6] = system: MSH2; settings: previously shown (Vasilyeva 2009, 2010); cited from earlier work

SMILES | IC50 [1] | cell killing [2] | IC50 [3] | further results
C=CC(=O)O[C@@H]1C[C@@H]2CN3CCc4c([nH]c5cc(OC)ccc45)[C@H]3C[C@@H]2[C@H](C(=O)OC)[C@H]1OC [SA-I-03, Acryloyl Reserpate] | 20.7 µM | induced cell killing in the micromolar range | 20.4 µM | melting point: > 260 °C
COC(=O)c1cc(/C=C/C(=O)O[C@@H]2C[C@@H]3CN4CCc5c([nH]c6cc(OC)ccc56)[C@H]4C[C@@H]3[C@H](C(=O)OC)[C@H]2OC)ccc1OC [SA-I-012] | 50.7 µM | – | 48.9 µM | –
COC(=O)[C@H]1[C@H]2C[C@@H]3c4[nH]c5cc(OC)ccc5c4CCN3C[C@H]2C[C@@H](OC(=O)/C=C/c2ccc(C(=O)O)c(OC)c2)[C@@H]1OC [SA-I-013] | 163 µM | – | 1220 µM | change of IC50 when MSH2 is present [2]: reduction in IC50 when MSH2 is present; change in sensitivity to MSH2 [2]: ~8 fold
COC(=O)[C@H]1[C@H]2C[C@@H]3c4[nH]c5cc(OC)ccc5c4CCN3C[C@H]2C[C@@H](OC(=O)/C=C/c2ccc(OC)c(C(=O)O)c2)[C@@H]1OC [SA-I-015] | 89.3 µM | – | 84.2 µM | –
COC(=O)[C@H]1[C@H]2C[C@@H]3c4[nH]c5cc(OC)ccc5c4CCN3C[C@H]2C[C@@H](OC(=O)/C=C/c2ccc(O)c(OC)c2)[C@@H]1OC [SA-I-016] | – | – | – | difference between MSH2-proficiency and deficiency (MSH2-dependence of cell killing) [2]: small difference between MSH2-proficiency and deficiency
COC(=O)[C@H]1[C@H]2C[C@@H]3c4[nH]c5cc(OC)ccc5c4CCN3C[C@H]2C[C@@H](OC(=O)/C=C/c2ccc(OC)c(OC(C)=O)c2)[C@@H]1OC [SA-I-019] | 39.3 µM | induced cell killing in the micromolar range | – | –
COC(=O)[C@H]1[C@H]2C[C@@H]3c4[nH]c5cc(OC)ccc5c4CCN3C[C@H]2C[C@@H](OC(=O)/C=C/c2ccc(OC)c(O)c2)[C@@H]1OC [SA-I-020] | 22.3 µM | induced cell killing in the micromolar range | 21.3 µM | –
COC(=O)[C@H]1[C@H]2C[C@@H]3c4[nH]c5cc(OC)ccc5c4CCN3C[C@H]2C[C@@H](OC(=O)/C=C/c2cc(OC)c(O)c(OC)c2)[C@@H]1OC [SA-I-027] | 47.7 µM | induced cell killing in the micromolar range | 54.5 µM | –
COC(=O)[C@H]1[C@H]2C[C@@H]3c4[nH]c5cc(OC)ccc5c4CCN3C[C@H]2C[C@@H](OC(=O)/C=C/c2ccc(OC)c(N)c2)[C@@H]1OC [SA-I-029] | 77.2 µM | – | 113 µM | change of IC50 when MSH2 is present [2]: reduction in IC50 when MSH2 is present; change in sensitivity to MSH2 [2]: ~2 fold
COC(=O)[C@H]1[C@H]2C[C@@H]3c4[nH]c5cc(OC)ccc5c4CCN3C[C@H]2C[C@@H](OC(=O)/C=C/c2ccc(N)c(OC)c2)[C@@H]1OC [SA-I-039] | 85.7 µM | induced cell killing in the micromolar range | 68.4 µM | difference between MSH2-proficiency and deficiency (MSH2-dependence of cell killing) [2]: small difference between MSH2-proficiency and deficiency; change in sensitivity to MSH2 [2]: ~2 fold
CCC(=O)O[C@@H]1C[C@@H]2CN3CCc4c([nH]c5cc(OC)ccc45)[C@H]3C[C@@H]2[C@H](C(=O)OC)[C@H]1OC [SA-I-058, Propionoyl Reserpate] | – | – | – | melting point: 258 °C
COC(=O)[C@H]1[C@H]2C[C@@H]3c4[nH]c5cc(OC)ccc5c4CCN3C[C@H]2C[C@@H](OC(=O)/C=C/c2cc(OC)c(OC)c(OC)c2)[C@@H]1OC [rescinnamine] | – | – | – | overcoming resistance to cisplatin [4]: capable of overcoming resistance to cisplatin in ovarian cancer cells; hypotensive activity limiting the dose [5]: hypotensive activity of the drug prevented administration of statistically effective doses; tumor inhibition ([5]; data not shown): significant trend toward tumor inhibition; induction of MSH2-dependent cell death [6]: capable of inducing cell death in an MSH2-dependent manner
COC(=O)[C@H]1[C@H]2C[C@@H]3c4[nH]c5cc(OC)ccc5c4CCN3C[C@H]2C[C@@H](OC(=O)c2cc(OC)c(OC)c(OC)c2)[C@@H]1OC [reserpine] | – | – | – | induction of MSH2-dependent cell death [6]: capable of inducing cell death in an MSH2-dependent manner
